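Test compounds were applied to cells in 96-well plates for 48 hours at 5 doses. Abbreviation: GI50, concentration required for 50% inhibition of growth. The concentration for full growth arrest is given as TGI.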
Assays:
Experiment in all cases: growth of human tumour cells (NCI), 48 h
[1] = test system: 786-0 renal
[2] = test system: A498 renal
[3] = test system: A549 NSCLC
[4] = test system: ACHN renal
[5] = test system: BT-549 breast
[6] = test system: CAKI-1 renal
[7] = test system: CCRF-CEM leukemia
[8] = test system: COLO 205 colon
[9] = test system: DU-145 prostate
[10] = test system: EKVX NSCLC
[11] = test system: HCC-2998 colon
[12] = test system: HCT-116 colon
[13] = test system: HCT-15 colon
[14] = test system: HL-60(TB) leukemia
[15] = test system: HOP-62 NSCLC
[16] = test system: HOP-92 NSCLC
[17] = test system: HS 578T breast
[18] = test system: HT29 colon
[19] = test system: IGROV1 ovarian
[20] = test system: KM12 colon
[21] = test system: LOX IMVI melanoma
[22] = test system: M14 melanoma
[23] = test system: MALME-3M melanoma
[24] = test system: MDA-MB-231 breast
[25] = test system: MDA-MB-435
[26] = test system: MOLT-4 leukemia
[27] = test system: NCI-H226 lung
[28] = test system: NCI-H23 lung
[29] = test system: NCI-H460 lung
[30] = test system: NCI-H522 lung
[31] = test system: NCI/ADR-RES ovarian
[32] = test system: OVCAR-3 ovarian
[33] = test system: OVCAR-4 ovarian
[34] = test system: OVCAR-5 ovarian
[35] = test system: OVCAR-8 ovarian
[36] = test system: PC-3 prostate
[37] = test system: SF-268 CNS
[38] = test system: SF-295 CNS
[39] = test system: SF-539 CNS
[40] = test system: SK-MEL-2 melanoma
[41] = test system: SK-MEL-28 melanoma
[42] = test system: SK-MEL-5 melanoma
[43] = test system: SK-OV-3 ovarian
[44] = test system: SN12C renal
[45] = test system: SNB-19 CNS
[46] = test system: SNB-75 CNS
[47] = test system: SR leukemia
[48] = test system: SW-620 colon
[49] = test system: T-47D breast
[50] = test system: TK-10 renal
[51] = test system: U251 CNS
[52] = test system: UACC-257 melanoma
[53] = test system: UACC-62 melanoma
[54] = test system: UO-31 renal

Q: Which results are given for C=C1C(=O)O[C@H]2[C@H]1CC/C(COC(=O)NCc1ccc(Cn3c(=O)sn(CCCCC)c3=O)cc1)=C\CC[C@@]1(C)O[C@@H]21?
A: GI50 [1]: 1980 nM; TGI [1]: 4.23 µM; GI50 [2]: 2910 nM; TGI [2]: 10.1 µM; GI50 [3]: 8.82 µM; TGI [3]: 22.8 µM; GI50 [4]: 1680 nM; TGI [4]: 3.14 µM; GI50 [5]: 1910 nM; TGI [5]: 4.62 µM; GI50 [6]: 2840 nM; TGI [6]: 12.9 µM; GI50 [7]: 364 nM; TGI [7]: 1670 nM; GI50 [8]: 1780 nM; TGI [8]: 3.33 µM; GI50 [9]: 1680 nM; TGI [9]: 3.04 µM; GI50 [10]: 1850 nM; TGI [10]: 5.59 µM; GI50 [11]: 3.55 µM; TGI [11]: 11.1 µM; GI50 [12]: 1730 nM; TGI [12]: 3.7 µM; GI50 [13]: 1660 nM; TGI [13]: 3.23 µM; GI50 [14]: 1100 nM; TGI [14]: 4.12 µM; GI50 [15]: 9.53 µM; TGI [15]: 22.6 µM; GI50 [16]: 1380 nM; TGI [16]: 3.01 µM; GI50 [17]: 2790 nM; TGI [17]: 14 µM; GI50 [18]: 2090 nM; TGI [18]: 3.89 µM; GI50 [19]: 2110 nM; TGI [19]: 4.8 µM; GI50 [20]: 2230 nM; TGI [20]: 4.94 µM; GI50 [21]: 1590 nM; TGI [21]: 2960 nM; GI50 [22]: 1890 nM; TGI [22]: 4.76 µM; GI50 [23]: 1610 nM; TGI [23]: 3.4 µM; GI50 [24]: 1720 nM; TGI [24]: 3.46 µM; GI50 [25]: 1710 nM; TGI [25]: 3.5 µM; GI50 [26]: 590 nM; TGI [26]: 4.06 µM; GI50 [27]: 10.7 µM; TGI [27]: 27.6 µM; GI50 [28]: 1940 nM; TGI [28]: 4.1 µM; GI50 [29]: 3.42 µM; TGI [29]: 12.5 µM; GI50 [30]: 1590 nM; TGI [30]: 3.1 µM; GI50 [31]: 14.4 µM; TGI [31]: 46.5 µM; GI50 [32]: 1410 nM; TGI [32]: 2750 nM; GI50 [33]: 1620 nM; TGI [33]: 3.3 µM; GI50 [34]: 2010 nM; TGI [34]: 4.91 µM; GI50 [35]: 2260 nM; TGI [35]: 5.46 µM; GI50 [36]: 1920 nM; TGI [36]: 3.8 µM; GI50 [37]: 1880 nM; TGI [37]: 3.97 µM; GI50 [38]: 12.5 µM; TGI [38]: 25.1 µM; GI50 [39]: 1640 nM; TGI [39]: 3.2 µM; GI50 [40]: 2410 nM; TGI [40]: 5.46 µM; GI50 [41]: 1850 nM; TGI [41]: 3.47 µM; GI50 [42]: 3.92 µM; TGI [42]: 14.3 µM; GI50 [43]: 8.77 µM; TGI [43]: 21.1 µM; GI50 [44]: 1710 nM; TGI [44]: 3.72 µM; GI50 [45]: 5.06 µM; TGI [45]: 17.5 µM; GI50 [46]: 1590 nM; TGI [46]: 4.07 µM; GI50 [47]: 300 nM; TGI [47]: 2180 nM; GI50 [48]: 1310 nM; TGI [48]: 2850 nM; GI50 [49]: 1750 nM; TGI [49]: 4 µM; GI50 [50]: 1960 nM; TGI [50]: 3.66 µM; GI50 [51]: 2200 nM; TGI [51]: 4.93 µM; GI50 [52]: 1570 nM; TGI [52]: 3.03 µM; GI50 [53]: 1590 nM; TGI [53]: 3.08 µM; GI50 [54]: 1460 nM; TGI [54]: 2800 nM
